The source of these data is US20060110790A1, “Expression system for large functional proteins” (priority 2002, published 2006).

The structures appear in SMILES notation.

The target in this assay is T1, individually expressed N half of ABCR containing 1D4 epitope tag (N*) (Homo sapiens, UniProt P78363).
T1 construct: The cDNAs coding for the N-half (amino acids 1-1325) and C-half (amino acids 1326-2273) of ABCR; made in house; host or cells: COS-1 cells
T1 sequence (P78363 1-1325): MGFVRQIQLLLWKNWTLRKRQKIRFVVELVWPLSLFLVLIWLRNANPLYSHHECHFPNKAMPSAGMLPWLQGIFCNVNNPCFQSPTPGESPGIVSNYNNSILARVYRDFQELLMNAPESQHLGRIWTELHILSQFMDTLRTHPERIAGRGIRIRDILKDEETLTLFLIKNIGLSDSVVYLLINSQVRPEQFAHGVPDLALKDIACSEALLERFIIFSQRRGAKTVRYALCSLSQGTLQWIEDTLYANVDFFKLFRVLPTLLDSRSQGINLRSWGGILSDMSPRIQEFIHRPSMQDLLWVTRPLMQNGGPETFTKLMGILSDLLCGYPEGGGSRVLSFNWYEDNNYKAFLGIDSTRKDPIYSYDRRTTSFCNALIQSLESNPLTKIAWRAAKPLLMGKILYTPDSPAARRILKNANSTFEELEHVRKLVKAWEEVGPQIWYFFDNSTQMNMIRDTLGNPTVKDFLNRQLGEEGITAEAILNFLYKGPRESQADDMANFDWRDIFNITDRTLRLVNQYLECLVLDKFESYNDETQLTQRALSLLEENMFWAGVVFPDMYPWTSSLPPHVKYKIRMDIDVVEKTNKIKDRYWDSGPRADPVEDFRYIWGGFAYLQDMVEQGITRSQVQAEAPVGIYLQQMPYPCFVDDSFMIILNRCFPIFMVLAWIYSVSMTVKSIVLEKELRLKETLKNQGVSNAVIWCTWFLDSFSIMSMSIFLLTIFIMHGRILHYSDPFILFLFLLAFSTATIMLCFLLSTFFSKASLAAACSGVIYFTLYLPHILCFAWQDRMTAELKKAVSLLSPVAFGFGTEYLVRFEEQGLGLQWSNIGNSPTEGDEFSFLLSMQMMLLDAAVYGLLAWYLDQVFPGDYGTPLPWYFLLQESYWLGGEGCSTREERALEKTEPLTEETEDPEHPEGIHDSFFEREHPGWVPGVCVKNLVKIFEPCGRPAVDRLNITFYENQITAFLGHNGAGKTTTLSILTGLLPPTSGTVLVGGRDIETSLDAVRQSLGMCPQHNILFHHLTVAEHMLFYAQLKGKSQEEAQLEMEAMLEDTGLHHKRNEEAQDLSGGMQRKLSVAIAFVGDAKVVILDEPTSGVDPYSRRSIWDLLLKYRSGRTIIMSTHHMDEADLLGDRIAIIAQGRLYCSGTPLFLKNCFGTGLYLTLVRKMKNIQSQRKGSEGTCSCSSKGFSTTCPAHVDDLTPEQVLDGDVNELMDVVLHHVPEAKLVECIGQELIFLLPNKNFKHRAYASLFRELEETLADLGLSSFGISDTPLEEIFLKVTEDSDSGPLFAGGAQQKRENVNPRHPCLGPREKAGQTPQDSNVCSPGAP
As to the kind of experiment: Retinal-stimulated ATPase activity of purified protein reconstituted in lipid vesicles. Particulars: individually expressed in COS-1 cells, 1D4-tagged, 50 μM [α32P]ATP. Format: biochemical. On the procedure: Membranes (from two 10 cm dishes) were solubilized in 0.5 ml of 1% Triton-X100 in Buffer A (140 mM NaCl, 20 mM Tris-HCl, pH 7.4) for 20 min on ice. For ATPase assays, the membrane preparation step was omitted and the cell suspension was solubilized directly in Buffer B (10 mg/ml soybean phospholipids, 10% glycerol, 1 mM dithiothreitol, 100 mM NaCl, 3 mM MgCl2, 50 mM NaHEPES, pH 7.4) containing 18 mM CHAPS. The supernatant after a 10 min centrifugation at 40,000 rpm (TLA100.4 rotor) was mixed with 50 μl Rim3F4 Sepharose 2B for 1 h at 4° C. The beads were washed 6 times in Buffer A containing 0.2% Triton X-100 or Buffer B containing 10 mM CHAPS and eluted with 4% SDS (for electrophoresis) or 0.2 mg/ml Rim3F4 peptide (for reconstitution and determination of ATPase activity). Purified protein (24 μl) was incubated with 6 μl of 50 mg/ml lipid (1:1 mixture of dioleoylphosphatidylethanolamine and brain polar lipid, by weight) and 3 μl n-octylglucoside for 30 min on ice. The mixture was diluted rapidly with 200 μl of Buffer C (1 mM dithiothreitol, 140 mM NaCl, 25 mM NaHEPES, pH 7.4) and passed through a 200 μl Extracti-gel column (Pierce). The flow-through containing the reconstituted protein was used for determination of ATPase activity.
ATPase activity was measured as described previously (Ahn, J., Wong, J. T., and Molday, R. S. (2000) J Biol Chem 275(27), 20399-405) using 50 μM [α^32P]ATP and thin layer chromatography. The all-trans retinal concentration was determined spectrophotometrically (λ383 nm=42.88 mM^−1 cm^−1). Protein concentration was estimated from the eluate before reconstitution by laser densitometry of Coomassie blue stained gels using bovine serum albumin as a standard. […] Direct protein measurements after reconstitution by densitometry of Western blots was about half of that in the eluate. […]
ATPase Activity of Expressed N and C Halves—The basal and retinal activated ATPase activity of full-length ABCR and the N and C halves individually or co-expressed in COS-1 cells was determined after immunoaffinity purification and reconstitution into lipid vesicles. […]

As for `CC1=C(/C=C/C(C)=C/C=C/C(C)=C/C=O)C(C)(C)CCC1` [all-trans retinal], the “stimulation of ATPase activity” value is “not stimulated”.
